Read-outs that look alike come from different tables or passages of the source. Bridge positions count the residues as written; N and C are the ends. Square brackets hold non-standard residues; d marks the D form. Ends that are not written are not given here. Peptide text beside a SMILES is read from it. * marks the point of attachment. X2 = O=C(O)CN1CCN(CC(=O)O)CCN(CC(=O)NCCN2C(=O)CC(*)C2=O)CC1; Lys(N3) = [N-]=[N+]=NCCCC[C@H](N)C(=O)O; Pra = C#CC[C@H](N)C(=O)O
Assays:
[1] = target: T1, Human αvβ6 (Homo sapiens, UniProt P06756+P18564); experiment: competitive integrin binding assay (isoDGR-peroxidase probe), αvβ6-coated plates; settings: competition with isoDGR-peroxidase on αvβ6-coated plates; mean ± SE of n independent experiments (n in the column beside)
T1 construct: purchased Bio-Techne
Procedure: Peptides were prepared by chemical synthesis; their identity and purity were checked by mass spectrometry (MS) and reverse-phase HPLC analysis. The affinity of peptides for αvβ6-coated plates was determined by competitive binding assay using an isoDGR peptide (an RGD mimetic) labeled with peroxidase as a probe for the integrin-binding site. Cell adhesion assays were carried out as described previously.
Figure S2. Competitive binding of isoDGR-peroxidase conjugate with peptide 5, 5a and 2a to αvβ6-coated microtiter plates.
The competitive binding assay was performed as previously described, using an isoDGR peptide (an RGD mimetic) labeled with peroxidase (isoDGR-HRP) as a probe for the integrin-binding site. A representative experiment (mean ± SE of 3-4 technical replicates) is shown. The resulting Ki values are shown (mean ± SE of n=3-7 independent experiments, see also Table […]
(1 picture or pasted object on this page, not shown here)
Figure S10. Biochemical characterization of 5a- and 2a-NOTA conjugates. […]
C) Competitive binding of isoDGR-HRP to αvβ6-coated microtiter plates with peptides and peptide-NOTA conjugates, as measured by competitive ELISA. […]
D) Stability of 5a-NOTA after labeling with 18F, as determined by RP-HPLC analysis using an […]

[2] = target: T1, Human αvβ6; parameters: method as in PMID 31755501; settings: competition with isoDGR-peroxidase on αvβ6-coated plates; mean ± SE of n independent experiments; ref [25]; read-out: Ki (competitive integrin binding assay) Human αvβ6; cited from earlier work
[3] = target: T2, Human αvβ8 (Homo sapiens, UniProt P06756+P26012); parameters: method as in PMID 31755501; settings: competition with isoDGR-peroxidase; mean ± SE of n independent experiments; ref [25]; read-out: Ki (competitive integrin binding assay) Human αvβ8; cited from earlier work
T2 construct: purchased Bio-Techne
T2 sequence (P06756 31-992 limits assumed): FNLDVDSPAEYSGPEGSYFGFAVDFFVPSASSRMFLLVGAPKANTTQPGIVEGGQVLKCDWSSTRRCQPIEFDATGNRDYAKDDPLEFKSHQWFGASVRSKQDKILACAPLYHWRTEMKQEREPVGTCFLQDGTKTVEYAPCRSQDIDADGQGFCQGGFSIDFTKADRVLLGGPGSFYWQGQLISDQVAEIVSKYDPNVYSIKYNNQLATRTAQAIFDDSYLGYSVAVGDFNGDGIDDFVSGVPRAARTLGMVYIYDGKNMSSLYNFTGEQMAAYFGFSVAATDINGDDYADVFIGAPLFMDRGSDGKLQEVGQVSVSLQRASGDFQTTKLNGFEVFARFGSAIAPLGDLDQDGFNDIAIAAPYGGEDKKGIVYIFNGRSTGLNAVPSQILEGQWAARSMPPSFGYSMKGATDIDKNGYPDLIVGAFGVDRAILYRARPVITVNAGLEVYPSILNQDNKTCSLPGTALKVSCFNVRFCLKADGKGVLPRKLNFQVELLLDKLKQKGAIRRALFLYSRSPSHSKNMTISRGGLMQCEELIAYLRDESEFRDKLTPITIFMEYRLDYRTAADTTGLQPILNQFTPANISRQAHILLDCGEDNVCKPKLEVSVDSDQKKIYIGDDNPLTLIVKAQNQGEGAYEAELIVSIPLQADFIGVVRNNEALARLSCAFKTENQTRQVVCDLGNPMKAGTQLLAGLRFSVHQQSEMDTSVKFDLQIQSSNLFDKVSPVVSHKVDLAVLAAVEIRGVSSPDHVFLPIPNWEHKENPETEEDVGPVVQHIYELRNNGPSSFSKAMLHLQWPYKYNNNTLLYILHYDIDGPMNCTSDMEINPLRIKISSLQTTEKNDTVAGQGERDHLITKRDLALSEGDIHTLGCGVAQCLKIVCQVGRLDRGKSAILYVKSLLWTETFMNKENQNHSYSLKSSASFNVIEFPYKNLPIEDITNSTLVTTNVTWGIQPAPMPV
T2 sequence (P26012 43-684 limits assumed): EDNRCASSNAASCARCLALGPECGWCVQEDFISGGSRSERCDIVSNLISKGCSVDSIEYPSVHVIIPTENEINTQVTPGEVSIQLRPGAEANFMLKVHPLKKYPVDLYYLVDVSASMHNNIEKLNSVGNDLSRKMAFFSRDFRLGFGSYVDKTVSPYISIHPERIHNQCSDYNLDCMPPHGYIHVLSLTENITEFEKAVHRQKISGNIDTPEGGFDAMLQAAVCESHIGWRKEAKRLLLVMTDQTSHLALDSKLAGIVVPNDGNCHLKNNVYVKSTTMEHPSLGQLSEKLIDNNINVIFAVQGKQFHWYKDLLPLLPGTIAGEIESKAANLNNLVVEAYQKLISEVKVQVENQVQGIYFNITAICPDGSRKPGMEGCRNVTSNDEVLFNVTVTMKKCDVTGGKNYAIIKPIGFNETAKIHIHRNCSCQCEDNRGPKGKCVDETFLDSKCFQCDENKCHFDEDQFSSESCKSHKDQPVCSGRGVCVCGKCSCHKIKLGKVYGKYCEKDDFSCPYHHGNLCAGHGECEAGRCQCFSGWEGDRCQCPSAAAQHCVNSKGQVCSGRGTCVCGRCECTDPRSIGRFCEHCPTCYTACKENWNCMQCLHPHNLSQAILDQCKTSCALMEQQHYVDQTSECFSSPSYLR

T1 sequence (P06756 31-992 limits assumed): as the sequence (P06756 31-992 limits assumed) above
T1 sequence (P18564 22-707 limits assumed): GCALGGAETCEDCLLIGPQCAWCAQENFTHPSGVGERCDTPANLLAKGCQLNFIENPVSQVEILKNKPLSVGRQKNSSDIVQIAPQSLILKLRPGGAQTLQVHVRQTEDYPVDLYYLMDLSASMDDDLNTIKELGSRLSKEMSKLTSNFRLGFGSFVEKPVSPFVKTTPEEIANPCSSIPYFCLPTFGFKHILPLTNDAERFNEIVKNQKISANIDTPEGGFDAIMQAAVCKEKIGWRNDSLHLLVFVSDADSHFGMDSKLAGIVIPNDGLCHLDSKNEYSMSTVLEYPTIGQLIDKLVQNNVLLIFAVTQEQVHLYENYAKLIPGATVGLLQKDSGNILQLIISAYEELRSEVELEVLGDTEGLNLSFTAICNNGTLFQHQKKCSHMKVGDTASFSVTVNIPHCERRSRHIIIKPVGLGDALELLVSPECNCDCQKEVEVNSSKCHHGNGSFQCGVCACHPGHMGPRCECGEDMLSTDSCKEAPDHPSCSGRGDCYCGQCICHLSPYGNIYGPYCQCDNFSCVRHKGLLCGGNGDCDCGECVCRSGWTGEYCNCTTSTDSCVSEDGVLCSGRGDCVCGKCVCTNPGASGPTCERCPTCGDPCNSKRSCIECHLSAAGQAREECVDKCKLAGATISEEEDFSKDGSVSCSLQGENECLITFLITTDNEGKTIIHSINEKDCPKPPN

| Ki [1] [nM] | Molecule | Ki [2] [nM] | Ki [3] [nM] |
| --- | --- | --- | --- |
| > 1000 | CC[C@H](C)[C@H](NC(=O)[C@H](CCCNC(=N)N)NC(=O)[C@H](CCC(=O)O)NC(=O)[C@H](CCC(=O)O)NC(=O)CNC(=O)[C@H](CCCNC(=N)N)NC(=O)[C@H](CC(C)C)NC(=O)[C@@H](NC(=O)[C@H](CCC(=O)O)NC(=O)[C@H](Cc1ccccc1)NC(=O)[C@@H](N)CSC1CC(=O)N(CCNC(=O)CN2CCN(CC(=O)O)CCN(CC(=O)O)CC2)C1=O)[C@@H](C)O)C(=O)N[C@@H](CC(C)C)C(=O)N[C@@H](CO)C(=O)N[C@H](C(=O)N[C@@H](CC(C)C)C(=O)N[C@@H](CCCNC(=N)N)C(=O)N[C@@H](Cc1c[nH]cn1)C(=O)N[C@@H](CCC(N)=O)C(=O)N[C@@H](CC(N)=O)C(=O)N[C@@H](CC(C)C)C(=O)N[C@@H](CC(C)C)C(=O)N[C@@H](CCCCN)C(=O)N[C@@H](CCC(=O)O)C(=O)N[C@@H](CC(C)C)C(=O)N[C@@H](CCC(N)=O)C(=O)N[C@@H](CC(=O)O)C(N)=O)[C@@H](C)CC (some centres unmarked) [2a-NOTA] (H-C(X2)FETLRGEERILSILRHQNLLKELQD-NH2) |  |  |
|  | CFETLRGEERILSILRHQNLLKELQD-NH2 [2a] | > 50000 | > 50000 |
| > 200 | CIRLDLELINFQSDLQHELLKTRLRG [5a-Scr] |  |  |
|  | ac-FETLRGDLRILSILRX1QNLX2KELQD-CONH2 (sidechain bridge or staple) (Ac-FETLRGDLRILSILR[Pra]QNL[Lys(N3)]KELQD-NH2; triazole 16-20; not fully specified) [compound 5, chromogranin A-derived peptide with RGDL motif and triazole-stapled alpha-helix, previously developed by the authors] | 0.6 ± 0.1 |  |

— article PMC9760430, “A stapled chromogranin A-derived peptide homes in on tumors that express αvβ6 or αvβ8 integrins” (International Journal of Biological Sciences, 2023)
